Laboratory results published in US20090170886A1 (Pfizer Inc, priority 2005, published 2009).
Where a chain is given by its changes, count along the chain named. Read-outs that look alike come from different tables or passages of the source.

Experiments:
[1] = target: T1, hAR (human androgen receptor, baculovirus/Sf9 generated extracts) (Homo sapiens, UniProt P10275); assay: AR Binding Assay (competitive binding with 3H-DHT tracer); conditions: 1 nM 3H-DHT, one hour at 4° C., mean of multiple tests
T1 construct: made in house; host or cells: baculovirus/Sf9 insect cells (crude extract)
T1 sequence (P10275 1-920): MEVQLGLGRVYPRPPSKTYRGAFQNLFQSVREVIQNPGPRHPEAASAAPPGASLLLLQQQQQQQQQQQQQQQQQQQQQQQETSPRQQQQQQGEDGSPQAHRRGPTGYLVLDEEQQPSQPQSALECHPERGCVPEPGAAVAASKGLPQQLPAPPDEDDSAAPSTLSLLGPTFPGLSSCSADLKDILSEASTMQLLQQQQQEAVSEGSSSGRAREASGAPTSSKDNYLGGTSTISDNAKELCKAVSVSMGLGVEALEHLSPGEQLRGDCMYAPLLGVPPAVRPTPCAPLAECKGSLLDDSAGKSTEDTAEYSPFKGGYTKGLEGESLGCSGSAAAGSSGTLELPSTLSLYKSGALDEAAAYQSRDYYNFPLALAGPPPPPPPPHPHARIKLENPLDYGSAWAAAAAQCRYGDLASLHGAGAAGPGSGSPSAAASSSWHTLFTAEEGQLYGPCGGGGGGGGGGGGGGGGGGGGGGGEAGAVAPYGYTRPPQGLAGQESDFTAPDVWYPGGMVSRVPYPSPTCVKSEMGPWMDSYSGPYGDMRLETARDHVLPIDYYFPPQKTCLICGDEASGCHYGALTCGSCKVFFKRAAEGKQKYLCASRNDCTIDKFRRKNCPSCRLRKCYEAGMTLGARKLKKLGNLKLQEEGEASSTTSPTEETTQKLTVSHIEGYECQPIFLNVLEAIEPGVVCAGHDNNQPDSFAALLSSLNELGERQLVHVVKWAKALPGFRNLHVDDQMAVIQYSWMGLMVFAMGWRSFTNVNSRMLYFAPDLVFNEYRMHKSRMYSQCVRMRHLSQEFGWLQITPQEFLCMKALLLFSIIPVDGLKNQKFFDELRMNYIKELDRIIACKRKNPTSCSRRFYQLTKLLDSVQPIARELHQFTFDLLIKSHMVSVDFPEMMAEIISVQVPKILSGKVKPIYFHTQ
Experimental: The compounds of Formula I have affinity for the androgen receptor. […] The description below describes how the assay was carried out.
Competitive binding analysis was performed on baculovirus/Sf9 generated hAR extracts in the presence or absence of different concentrations of test agent and a fixed concentration of ^3H-dihydrotestosterone (^3H-DHT) as tracer. This binding assay method is a modification of a protocol previously described (Liao S., et. al., J. Steroid Biochem., 20:11-17, 1984). Briefly, progressively decreasing concentrations of compounds are incubated in the presence of hAR extract (Chang et al., P.N.A.S., Vol. 89, pp. 5546-5950, 1992), hydroxylapatite, and 1 nM ^3H-DHT for one hour at 4° C. Subsequently, the binding reactions are washed three times to completely remove excess unbound ^3H-DHT. hAR bound ^3H-DHT levels are determined in the presence of compounds (i.e. competitive binding) and compared to levels bound when no competitor is present (i.e. maximum binding). Compound binding affinity to the hAR is expressed as the concentration of compound at which one half of the maximum binding is inhibited. Table II below provides the results that were obtained for selected compounds (reported data is the mean of multiple tests as shown below).

[2] = target: T2, androgen receptor in MDA-MB453-MMTV clone 54-19 cells (Homo sapiens, UniProt P10275); assay: AR Antagonist Cell Assay (MMTV-luciferase reporter, DHT-induced); assay type: cell-based; conditions: MDA-MB453-MMTV clone 54-19, 100 pM DHT, 17 hr; mean of multiple tests
T2 sequence (P10275 1-920 Q868H): T1 sequence (P10275 1-920) with Q868H
Experimental: The compounds ability to antagonize the effects of androgen on the androgen receptor were determined in a whole cell assay as described immediately below.
Cell line: MDA-MB453-MMTV clone 54-19. This cell line is a stable transfected cell line with MDA-MB453 cell background (a human breast tumor cell line expressing androgen receptor). A MMTV minimal promoter containing ARE was first cloned in front of a firefly luciferase reporter gene. Then the cascade was cloned into transfection vector pUV120puro. Electroporation method was used for transfecting MDA-MB-453 cell. Puromycin resistant stable cell line was selected.
Culture medium: DMEM (high glucose, Gibco cat #: 11960-044), 10% FBS, and 1% L-glutamine
Plating medium: DMEM (phenol red free), 10% charcoal treated HyClone serum, 1% L-glutamine
Assay medium: DMEM (phenol red free), 1% charcoal treated HyClone serum, 1% L-glutamine, and 1% penicillin/streptomycin
3× luciferase buffer: 2% beta-mercaptoethanol, 0.6% ATP, 0.0135% luciferine in cell lysis buffer
Cells are maintained in culture medium, splitting cells when they reach 80-90% confluence. To test compounds, 10,000 cells/well are plated to opaque 96 cell culture plate in 100 ul/well plating medium, culture for overnight at 37° C. in cell culture incubator. Carefully remove plating medium, then add 80 ul/well of pre-warmed assay medium, add 10 ul/well testing compound (final concentration at) 1000 nM, 200 nM, 40 nM, 8 nM, 1.6 nM, and 0.32 nM), incubate at 37° C. for 30 minutes. Add 10 ul/well freshly prepared DHT (final concentration at 100 pM) to each well, incubate at 37° C. for 17 hr (overnight). Add 50 ul/well 3× luciferase buffer, incubate at room temperature for 5 minutes, then count on Luminometer. The fold induction over background by 100 pM DHT in the absence of testing compounds is standardized as 100% and experimental result is expressed as percentage of inhibition by testing compounds.
The results are reported as the mean of multiple tests as described below (the numbers of tests are indicated in the footnote). ND denotes that the compound was not tested.

[3] = hAR extract, read-out: AR Binding IC50

Row | Structure (SMILES) | IC50 ([1]; AR Binding IC50, hAR extract) | IC50 [2] | IC50 [1, 3]
1 | C[C@H](Oc1ccc(C#N)c(C(F)(F)F)c1)c1ccccc1 [Example 2, (S)-4-(1-Phenyl-ethoxy)-2-trifluoromethyl-benzonitrile] | 13 nM | 381 nM | –
2 | Cc1cccc(C(CC(C)C)Oc2ccc(C#N)c(C(F)(F)F)c2)n1 (stereo not shown) [Example 85, 4-[3-Methyl-1-(6-methyl-pyridin-2-yl)-butoxy]-2-trifluoromethyl-benzonitrile] | – | > 1000 nM | 167 nM
3 | CCC(C)(Oc1ccc(C#N)c(C(F)(F)F)c1)c1ccccc1 (stereo not shown) [Example 47, 4-(1-Methyl-1-phenyl-propoxy)-2-trifluoromethyl-benzonitrile] | – | – | 461 nM
4 | CC(Oc1ccc(C#N)c(C(F)(F)F)c1)c1ccccc1C(F)(F)F (stereo not shown) [Example 31, 2-Trifluoromethyl-4-[1-(2-trifluoromethyl-phenyl)-ethoxy]-benzonitrile] | – | 398 nM | 146 nM
5 | C[C@H](Oc1ccc(C#N)cc1Cl)c1ccccc1 [Example 39, (S)-3-Chloro-4-(1-phenyl-ethoxy)-benzonitrile] | 410 nM | – | –
6 | CC(Oc1ccc(C#N)c(C(F)(F)F)c1)c1cncc(O)c1 (stereo not shown) [Example 73, 4-[1-(5-Hydroxypyridin-3-yl)ethoxy]-2-(trifluoromethyl)benzonitrile] | – | 70 nM | 110 nM
7 | C[C@@H](Oc1ccc(C#N)c(C(F)(F)F)c1)c1ccccn1 [Example 36, (R)-(+)-4-(1-Pyridin-2-yl-ethoxy)-2-trifluoromethyl-benzonitrile] | 54 nM | 28 nM | –
8 | CC(Oc1ccc(C#N)c(C(F)(F)F)c1)c1cccc(C(F)(F)F)c1 (stereo not shown) [Example 32, 2-Trifluoromethyl-4-[1-(3-trifluoromethyl-phenyl)-ethoxy]-benzonitrile] | – | – | 214 nM
9 | CC(Oc1ccc(C#N)c(C(F)(F)F)c1)c1ccccc1Cl (stereo not shown) [Example 22, 4-[1-(2-Chloro-phenyl)-ethoxy]-2-trifluoromethyl-benzonitrile] | – | 102 nM | 108 nM
10 | C=CC(Oc1ccc(C#N)c(C(F)(F)F)c1)c1cccc(O)c1 (stereo not shown) [Example 16, 4-{[1-(3-Hydroxyphenyl)prop-2-enyl]oxy}-2-(trifluoromethyl)benzonitrile] | 11 nM | 416 nM | –
11 | COc1cc(OCCc2cccc(F)c2)ccc1C#N [Example 71B, 4-[2-(3-Fluoro-phenyl)-ethoxy]-2-methoxy-benzonitrile] | – | 41.4 nM | 155 nM
12 | CCC(Oc1ccc(C#N)c(C(F)(F)F)c1)c1cccc(C)n1 (stereo not shown) [Example 87, 4-[1-(6-Methyl-pyridin-2-yl)-propoxy]-2-trifluoromethyl-benzonitrile] | – | – | 483 nM
13 | Cc1cccc(C)c1C(C)Oc1ccc(C#N)c(Cl)c1 (stereo not shown) [Example 63, 2-Chloro-4-[1-(2,6-dimethyl-phenyl)-ethoxy]-benzonitrile] | – | – | 328 nM
14 | CCCC(Oc1ccc(C#N)c(C(F)(F)F)c1)c1cccc(C)n1 (stereo not shown) [Example 86, 4-[1-(6-Methyl-pyridin-2-yl)-butoxy]-2-trifluoromethyl-benzonitrile] | – | – | 330 nM
15 | COc1ccccc1COc1ccc(C#N)c(C(F)(F)F)c1 [Example 45, 4-(2-Methoxy-benzyloxy)-2-trifluoromethyl-benzonitrile] | – | > 1000 nM | –
16 | Cc1cccc(COc2ccc(C#N)c(C(F)(F)F)c2)c1 [Example 52, 4-(3-Methyl-benzyloxy)-2-trifluoromethyl-benzonitrile] | – | – | 302 nM
17 | CC(Oc1ccc(C#N)c(C(F)(F)F)c1)c1ccc(Cl)cc1 (stereo not shown) [Example 23, 4-[1-(4-Chloro-phenyl)-ethoxy]-2-trifluoromethyl-benzonitrile] | – | – | 307 nM
18 | COc1cc(OC(C)Cc2ccccc2)ccc1C#N (stereo not shown) [Example 71A, 2-Methoxy-4-(1-methyl-2-phenyl-ethoxy)-benzonitrile] | – | – | 306 nM
19 | C[C@@H](Oc1ccc(C#N)cc1Cl)c1ccccc1 [Example 38, (R)-3-Chloro-4-(1-phenyl-ethoxy)-benzonitrile] | 281 nM | – | –
20 | CC(Oc1ccc(C#N)c(C(F)(F)F)c1)c1cccc(OC2CCCCO2)c1 (stereo not shown) [Example 7, 4-{1-[3-(Tetrahydro-2H-pyran-2-yloxy)phenyl]ethoxy}-2-(trifluoromethyl)benzonitrile] | – | – | 383 nM
21 | COc1ccc(CCOc2ccc(C#N)c(C(F)(F)F)c2)cc1 [Example 76, 4-[2-(4-Methoxy-phenyl)-ethoxy]-2-trifluoromethyl-benzonitrile] | – | – | 281 nM
22 | Cc1ccccc1C(C)Oc1ccc(C#N)c(C(F)(F)F)c1 (stereo not shown) [Example 27, 4-(1-o-Tolyl-ethoxy)-2-trifluoromethyl-benzonitrile] | – | – | 439 nM
23 | CC(Cc1ccccc1)(Oc1ccc(C#N)cc1Cl)c1ccccc1 (stereo not shown) [Example 42, 3-Chloro-4-(1-methyl-1,2-diphenyl-ethoxy)-benzonitrile] | – | – | 377 nM
